Measurements published in patent US20260041695A1, “COMBINATION THERAPIES FOR TREATMENT OF BREAST CANCER” (Genentech, Inc., priority 2019, published 2026).
Like-named read-outs stand apart in the source and are kept apart here.

How the values were obtained:
[1] = system: MCF-7 (PIK3CA mutant E545K, ER+) breast carcinoma xenograft; test: MCF-7 xenograft efficacy; details: for % TGI: G 25 mg/kg oral QD 21 days, P 50 mg/kg oral QD 21 days, F 200 mg/kg s.c. weekly 3 weeks, groups of 12 animals; for CR / PR: number of animals, groups of 12, doses as for % TGI
Description: Implant 0.36 mg estradiol pellets, s.c. between the scapulae, 1-3 days prior to cell implantation.
Set up CR female NCr nu/nu mice with 1×10^7 MCF7 tumor cells in 0% Matrigel sc in mammary fat pad.
Perform a pair match when tumors reach an average size of 180-220 mm^3, and begin treatment.
Caliper Measurement: biwk to end
Endpoint TGD. Animals are monitored individually. The endpoint of the experiment is a tumor volume of 2000 mm^3 or 45 days, whichever comes first. Responders can be followed longer. When the endpoint is reached, the animals are euthanized per SOP.

[2] = cited from earlier work
[3] = Phase Ib GDC-0077 + letrozole with or without palbociclib: pharmacokinetics; assay type: in vivo, human
[4] = Phase I single-agent GDC-0077: pharmacokinetics; assay type: in vivo, human
Description: To evaluate single dose pharmacokinetics (PK), frequent blood sampling was performed up to 48 hours after the initial dose at Cycle 1 Day 1. Once daily dosing was initiated from Cycle 1 Day 8 and blood sampling to evaluate PK at steady state was conducted at Cycle 1 Day 15.

PI3K pathway [5] = test: Phase Ib GDC-0077 + letrozole with or without palbociclib: pharmacodynamics; assay type: in vivo, human
Description: Pharmacodynamic activity was assessed pre- and on-study (after 2 weeks of daily GDC-0077 treatment), in tumor biopsies via immunohistochemistry (IHC), and in ctDNA samples (by FoundationACT).

[6] = Phase I/Ib inavolisib + palbociclib + fulvestrant: pharmacokinetics; parameters: species or system human; details: in vivo
PI3K pathway [7] = test: Phase I single-agent GDC-0077: pharmacodynamics; assay type: in vivo, human
Description: Pharmacodynamic activity was assessed pre- and on-study (after 2 weeks of daily GDC-0077 treatment) with FDG-PET scans, in tumor biopsies via immunohistochemistry (IHC), and in ctDNA samples (by FoundationACT).

[8] = Phase I/Ib GDC-0077 + fulvestrant: pharmacokinetics and food effect; assay type: in vivo, human
Description: Safety (NCI-CTCAE v4), PK, and preliminary antitumor activity (clinical benefit rate [CBR]: RECIST v1.1 stable disease for ≥24 weeks, partial response [PR], or complete response) were assessed. The effect of a standard high-fat meal on the PK of G was evaluated after a single dose and at steady state. Relevant signaling and pharmacodynamic (PD) biomarkers were assessed using circulating tumor (ct) DNA samples.

[9] = molecular target: Class I PI3K alpha isoform (Homo sapiens, UniProt P42336); details: versus PI3K alpha; cited from earlier work
Class I PI3K alpha isoform, sequence (P42336 whole entry, canonical isoform): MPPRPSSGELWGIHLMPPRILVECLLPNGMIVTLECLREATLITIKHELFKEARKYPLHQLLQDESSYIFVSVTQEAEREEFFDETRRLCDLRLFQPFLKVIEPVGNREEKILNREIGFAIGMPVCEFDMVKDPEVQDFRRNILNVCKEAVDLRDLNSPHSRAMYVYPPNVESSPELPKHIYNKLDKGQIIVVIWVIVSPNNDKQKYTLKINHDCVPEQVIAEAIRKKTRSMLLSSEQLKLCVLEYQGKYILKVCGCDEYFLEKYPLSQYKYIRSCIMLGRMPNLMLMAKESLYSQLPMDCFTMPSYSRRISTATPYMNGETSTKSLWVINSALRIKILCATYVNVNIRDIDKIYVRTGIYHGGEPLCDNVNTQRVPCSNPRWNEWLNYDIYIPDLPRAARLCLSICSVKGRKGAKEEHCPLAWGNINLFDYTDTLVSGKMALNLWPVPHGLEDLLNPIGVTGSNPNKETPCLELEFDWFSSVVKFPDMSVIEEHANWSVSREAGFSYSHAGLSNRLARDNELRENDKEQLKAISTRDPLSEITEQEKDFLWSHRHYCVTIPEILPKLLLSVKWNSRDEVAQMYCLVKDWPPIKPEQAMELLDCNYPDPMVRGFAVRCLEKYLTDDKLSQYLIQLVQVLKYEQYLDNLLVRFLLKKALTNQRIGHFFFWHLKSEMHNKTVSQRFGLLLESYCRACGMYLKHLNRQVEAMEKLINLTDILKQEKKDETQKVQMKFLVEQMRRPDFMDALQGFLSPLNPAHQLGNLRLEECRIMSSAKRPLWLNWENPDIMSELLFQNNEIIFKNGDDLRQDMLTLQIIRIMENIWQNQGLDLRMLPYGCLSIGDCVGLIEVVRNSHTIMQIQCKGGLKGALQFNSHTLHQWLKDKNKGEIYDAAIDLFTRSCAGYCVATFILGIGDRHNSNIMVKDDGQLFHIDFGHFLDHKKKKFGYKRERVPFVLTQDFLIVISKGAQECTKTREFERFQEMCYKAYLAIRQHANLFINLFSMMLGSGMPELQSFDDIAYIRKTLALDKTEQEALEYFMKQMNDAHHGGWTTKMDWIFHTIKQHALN
Class I PI3K alpha isoform, sequence (P27986 whole entry partner, canonical isoform): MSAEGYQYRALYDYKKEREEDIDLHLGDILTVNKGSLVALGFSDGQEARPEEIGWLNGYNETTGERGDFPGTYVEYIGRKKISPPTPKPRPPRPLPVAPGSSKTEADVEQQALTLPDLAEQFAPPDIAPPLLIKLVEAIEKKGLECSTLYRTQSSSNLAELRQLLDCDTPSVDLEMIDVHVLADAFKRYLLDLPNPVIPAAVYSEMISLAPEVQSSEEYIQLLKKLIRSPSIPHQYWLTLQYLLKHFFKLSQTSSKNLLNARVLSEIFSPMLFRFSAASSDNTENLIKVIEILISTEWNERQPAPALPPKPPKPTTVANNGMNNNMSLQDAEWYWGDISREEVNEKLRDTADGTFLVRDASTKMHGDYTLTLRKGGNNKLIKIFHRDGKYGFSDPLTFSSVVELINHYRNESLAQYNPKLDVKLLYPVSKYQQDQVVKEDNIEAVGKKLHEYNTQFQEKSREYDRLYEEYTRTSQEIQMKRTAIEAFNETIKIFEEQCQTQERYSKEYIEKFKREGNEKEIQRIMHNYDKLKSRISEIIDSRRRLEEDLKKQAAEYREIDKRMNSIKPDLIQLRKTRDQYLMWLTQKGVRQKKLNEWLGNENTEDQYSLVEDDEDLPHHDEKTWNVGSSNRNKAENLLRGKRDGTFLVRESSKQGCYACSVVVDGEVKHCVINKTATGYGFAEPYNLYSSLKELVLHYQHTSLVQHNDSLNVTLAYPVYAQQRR

[10] = system: tumor cells bearing mutant PI3K; details: cited from earlier work
[11] = system: locally advanced or metastatic PIK3CA-mutant solid tumors; test: Phase I single-agent GDC-0077: clinical activity (RECIST v1.1); assay type: in vivo, human
Description: Tumor assessments were performed by RECIST v1.1 at screening and every 8 weeks to assess preliminary anti-tumor activity.

[12] = in combination with fulvestrant
[13] = 19 patients with measurable disease

## C[C@]12CC[C@@H]3c4ccc(O)cc4C[C@@H](CCCCCCCCC[S+]([O-])CCCC(F)(F)C(F)(F)F)[C@H]3[C@@H]1CC[C@@H]2O (stereo partly drawn) [fulvestrant, (7α,17β)-7-{9-[(4,4,5,5,5-pentafluoropentyl)sulfinyl]nonyl}estra-1,3,5(10)-triene-3,17-diol]
[1]
  % TGI: 52%
  CR: 0
  PR: 0

## CC(=O)c1c(C)c2cnc(Nc3ccc(N4CCNCC4)cn3)nc2n(C2CCCC2)c1=O [palbociclib, 6-acetyl-8-cyclopentyl-5-methyl-2-(5-(piperazin-1-yl)pyridin-2-ylamino)pyrido[2,3-d]pyrimidin-7(8H)-one]
[2]; [12]
  cycle delays: 36%
  dose holds: 54%
  patients required ≥1 dose reduction of palbociclib: 34%
[2]; in combination with letrozole
  cycle delays: 68%
  dose holds: 70%
  patients required ≥1 dose reduction of palbociclib: 36%
[1]
  % TGI: 45%
  CR: 0
  PR: 0
[3]; in vivo
  pharmacokinetics in combination with GDC-0077 versus single-agent PK reported in literature: comparable

## C[C@H](Nc1ccc2c(c1)OCCn1cc(N3C(=O)OC[C@H]3C(F)F)nc1-2)C(N)=O [GDC-0077, (S)-2-((2-((S)-4-(difluoromethyl)-2-oxooxazolidin-3-yl)-5,6-dihydrobenzo[f]imidazo[1,2-d][1,4]oxazepin-9-yl)amino)propanamide]
[4]; after a single dose and at steady state at MTD (9 mg)
  PK variability (% CV) for Cmax and AUC0-24: ~20%
[4]; human, plasma, oral, following a single dose, read-out: Mean half-life (t1/2) (converted)
  half-life: 18.1 h
[4]; single and multiple doses
  Plasma exposure versus dose: increased proportionally
[1]
  % TGI: 35%
  CR: 0
  PR: 0
PI3K pathway [5]; GDC-0077 with letrozole with or without palbociclib
  PI3K pathway effectors (pAKT, pS6) in paired tumor biopsies: Robust PD downregulation
PI3K pathway [5]; between Cycle 1 Day 1 and Cycle 1 Day 15, majority of available samples
  PIK3CA mutant allele frequency by ctDNA: decreased
[6]
  drug-drug interactions with concomitant therapies (palbociclib and fulvestrant [and metformin]): no drug-drug interactions
  pharmacokinetics of inavolisib in combination with palbociclib+fulvestrant versus single-agent inavolisib: similar
PI3K pathway [7]; baseline and after 2 weeks of daily GDC-0077
  FDG-PET scans: metabolic responses at all dose levels evaluated
PI3K pathway [7]; in vivo
  PI3K pathway activity in paired tumor biopsies by IHC for phosphoproteins: Decreased
PI3K pathway [7]; over time, majority of specimens
  ctDNA PIK3CA mutant allele frequency: Decreased
[8]; in vivo
  PK of GDC-0077 in combination with fulvestrant versus single-agent PK: similar
[8]; standard high-fat meal, single dose and steady state
  GDC-0077 exposures (Cmax and AUC0-24) in fasted or fed states: Comparable
[3]; Preliminary results
  plasma exposure of GDC-0077, single agent versus combination arms: similar
[3]; in vivo
  drug-drug interaction with concomitant medications (palbociclib and letrozole): no drug-drug interaction
[9]
  fold less potent biochemical inhibition for other Class I PI3K beta, delta, and gamma isoforms: > 300 fold
[10]
  potency in tumor cells bearing mutant PI3K over wild type (WT) PI3K cells: increased potency
9 patients treated ≥5 months
  colitis: No colitis
QD, single agent
  MTD: 9 mg
At 12 mg (1 Grade 4 hyperglycemia, 1 Grade 3 fatigue)
  Dose-limiting toxicities: 2 patients
treatment-related diarrhea events all Grade 1-2
  treatment related high-grade gastrointestinal toxicities: No treatment related high-grade gastrointestinal toxicities
[11]; [13]
  best overall response rate: 26%
  confirmed overall response rate: 21%
[11]; 20 patients
  clinical benefit rate: 45%
[11]; of 20 patients
  clinical benefit: 9 patients
[11]; overall, 20 patients
  best overall response rate: 25%
  confirmed PR: 4 patients
  confirmed overall response rate: 20%
  partial response (PR): 5 patients
[11]; patients with tumors harboring PIK3CA mutations (conclusions)
  overall response rate: 210%

## N#Cc1ccc(C(c2ccc(C#N)cc2)n2cncn2)cc1 [letrozole, 4,4′-((1H-1,2,4-triazol-1-yl)methylene)dibenzonitrile, reference compound]
[3]; in vivo
  pharmacokinetics in combination with GDC-0077 versus single-agent PK reported in literature: comparable
